Patent US8242251B2, “Unsymmetrical cyanine dimer compounds and their application” (Life Technologies Corporation, priority 2003, dated 2012)

Experiments:
[1] = test system: Bovine pulmonary arterial endothelial cells; experiment: Cell permeability and nucleic acid label pattern with a concentration series in live cells (Example 43); type: cell-based
Method: Bovine pulmonary arterial endothelial cells were grown in media for one day after plating on coverslips, then labeled with 50 nM MitoTracker Red CMXRos (Molecular Probes, Inc., M7512) in Hank's balanced salt solution (HBSS) with HEPES for general mitochondrial labeling. After washing in HBSS, cells were then labeled with Compound 1 at various concentrations ranging from 100 nM up to 10 μM in media for 20 minutes at 37°. Cells were washed well with HBSS. Coverslips were examined mounted in warm HBSS on a Nikon Eclipse 800 upright fluorescent microscope and imaged with a FITC filter set, a Princeton Instruments MicroMax cooled CCD camera, and Universal Imaging MetaMorph imaging software. […] The mtDNA signal was localized within mitochondria, as evidenced by MitoTracker Red labeling.

[2] = test system: RNA versus DNA; experiment: Screening of fluorescence properties and relative fluorescence enhancement with RNA versus DNA (Table 3); type: binding; settings: for Fluorescence Enhancement Ratio (RNA/DNA): fluorescence enhancement when associated with RNA to that when associated with DNA
[3] = test system: Bovine pulmonary arterial endothelial cells; experiment: Nucleic acid binding on RNase and DNase treated formaldehyde-fixed eukaryotic cells (Example 39); type: cell-based; settings: Compound 6 687 nM, Compound 19 1 μM
Method: (§1) Bovine pulmonary arterial endothelial cells were grown in media for one day after plating and then fixed fifteen minutes in 4% paraformaldehyde. Cells were washed 3×5 minutes in PBT (0.05M phosphate-buffered saline (PBS) containing 0.1% Triton X-100) and then treated with RNase (from Roche, at 1:500 dilution) or DNase (from Promega, at 1:100 dilution), or both for 2 hours at 37° C. Cells were washed again for 3×5 minutes in PBT and then labeled with Compound 6 at 687 nM concentration or Compound 19 at 1 μM concentration in PBS for 20 minutes. Cells were washed 3×10 minutes in PBS and mounted on microscope slides in ProLong antifade mounting medium (Molecular Probes, Inc.). After the mountant had hardened, slides were examined on a Nikon Eclipse 800 upright fluorescent microscope and imaged with a FITC filter set, a Princeton Instrument MicroMax cooled CCD camera, and Universal Imaging MetaMorph imaging software. […] See, FIG. 5.

[4] = test system: Bovine pulmonary arterial endothelial cells; experiment: Nucleic acid binding in live eukaryotic cells followed by fixing of cells (Example 40); type: cell-based
Method: Bovine pulmonary arterial endothelial cells were grown in media for one day after plating and then labeled before fixing with 687 nM Compound 6 for 20 minutes. Some cells were rinsed in media and separated for live imaging. The other cells were rinsed twice with media and then fixed in 4% paraformaldehyde for 15 minutes at room temperature, 0.5% glutaraldehyde for 5 minutes at room temperature, or 100% methanol for 10 minutes at −20° C. Cells were washed 3×10 minutes in phosphate-buffered saline and mounted on microscope slides in ProLong antifade mounting medium (Molecular Probes, Inc.). After the mountant had hardened, slides were examined on a Nikon Eclipse 800 upright fluorescent microscope and imaged with a FITC filter set, a Princeton Instrument MicroMax cooled CCD camera, and Universal Imaging MetaMorph imaging software. […] Fixation with either paraformaldehyde or glutaraldehyde removed all mitochondrial labeling. Nucleolar label remained, but nuclear label increased. […] Methanol-fixation had good nucleolar labeling, with only a slight increase in nuclear labeling. All mitochondrial labeling was removed. Cytoplasmic label increased slightly, but not nearly to the extent seen with other fixation. Results generally indicate that methanol-fixation is the recommended fixation technique.

[5] = test system: Gram-positive (Staphylococcus aureus) and Gram-negative (Eshcerichia coli) bacteria; experiment: Rifampicin-depletion of bacterial RNA, flow cytometry and microplate reader (Example 37); type: cell-based; settings: for fluorescent signal of rifampicin treated versus untreated bacteria: 25 μg/mL rifampicin one hour, compound 0.25, 0.5 or 1 μM, 10-15 minutes
Method: Gram-positive (Staphylococcus aureus) and Gram-negative (Eshcerichia coli) bacteria in growth medium were treated with 25 μg/mL rifampicin for one hour. Treated and untreated bacteria were counted, diluted to 1×10^7 bacteria/mL in 0.85% NaCl, and 1 mL aliquots incubated with 0.25 μM, 0.5 μM, or 1 μM Compound 6 or Compound 9 for 10-15 minutes protected from light. The samples were analyzed by flow cytometry and then 100 μL volumes were transferred to a microplate in triplicate and analyzed by a microplate reader. The fluorescence intensity was corrected against the dye in solution, which was weakly fluorescent.

[6] = test system: Bovine pulmonary arterial endothelial cells; experiment: Nucleic acid binding after RNase and DNase on methanol-fixed eukaryotic cells (Example 38); type: cell-based
Method: as §1, with “ten” for “fifteen”, “100% methanol at −20° C.” for “4% paraformaldehyde.”, “dilution)” for “dilution), or both”, “concentration” for “concentration or Compound 19 at 1 μM concentration in PBS”, “medium.” for “medium (Molecular Probes, Inc.).”, “4.” for “5.”

[7] = test system: Bovine pulmonary arterial endothelial cells; experiment: Nucleic acid binding in methanol-fixed eukaryotic cells (Example 42); type: cell-based
Method: Bovine pulmonary arterial endothelial cells were grown in media for one day after plating on coverslips and then fixed 10 minutes in −20° C. 100% methanol. Cells were washed 3×5 minutes 50 mM phosphate buffered saline (PBS), pH 7.3. Cells were labeled with Compound 11 at 5 μM, 1 μM, or 500 nM concentration in PBS for 20 minutes, washed 3×10 minutes in PBS, and mounted in ProLong antifade mountant (Molecular Probes, Inc.). Cells were labeled with Compound 6 at 500 nM in PBS for 20 minutes. After the mountant had hardened, slides were examined on a Nikon Eclipse 800 upright fluorescent microscope and imaged with a blue-green filter set, a Princeton Instruments MicroMax cooled CCD camera, and Universal Imaging MetaMorph imaging software. Comparison of emission wavelength was made using a Zeiss 510 confocal microscope utilizing a META spectral unmixing system. […] Optimal labeling for both compounds appeared to be about […]. […] See, FIG. 6.

[8] = methanol fixed cells, cytoplasm, nucleus and nucleolus (FIG. 4)
[9] = methanol-fixed, compound 687 nM
[10] = methanol-fixed, compound 687 nM, by eye

## C[n+]1c(/C=C2\C=C(SCCCCCCCCCSC3=C/C(=C\c4sc5ccccc5[n+]4C)c4ccccc4N3c3ccccc3)N(c3ccccc3)c3ccccc32)sc2ccccc21 [Compound 1]
[1]; 20 minutes at 37°
  staining pattern at 1 μM: nuclear labeling was seen as well as mtDNA
  staining pattern at 3 μM or higher: mtDNA labeling was lost, replaced with ubiquitous cytoplasmic labeling and strong nuclear labeling
[1]; 20 minutes at 37°, MitoTracker Red co-label
  staining pattern at 100 nM to 500 nM: mitochondrial DNA (mtDNA), with no nuclear label, or cytoplasmic background
[1]; as evidenced with MitoTracker Red
  concentration at which mitochondrial morphology was disrupted: ≥ 3 μM
[2]
  Fluorescence Enhancement Ratio (RNA/DNA): 1.0

## C[n+]1c(/C=C2\C=C(N3CCN(C4=C/C(=C\c5sc6ccccc6[n+]5C)c5ccccc5N4c4ccccc4)CC3)N(c3ccccc3)c3ccccc32)sc2ccccc21.[Cl-].[Cl-] [Compound 6]
[3]
  cytoplasmic label after DNase: significantly reduced by both RNase and DNase
  cytoplasmic label after RNase: significantly reduced by both RNase and DNase
  labeling of nucleoli after RNase: eliminated
  nuclear labeling after DNase: significantly reduced by both RNase and DNase
  nuclear labeling after RNase: significantly reduced by both RNase and DNase
  nucleolar intensity after DNase: significantly reduced
[4]; 687 nM, 20 minutes, live imaging
  labeling pattern in live cells: strong nucleolar label, strong punctate labeling in mitochondria consistent with mtDNA, and dimmer ubiquitous mitochondrial labeling
[4]; labeled live at 687 nM, then 4% paraformaldehyde or 0.5% glutaraldehyde
  labeling pattern after fixation with paraformaldehyde or glutaraldehyde: removed all mitochondrial labeling. Nucleolar label remained, but nuclear label increased. General cytoplasmic labeling also increased significantly
[4]; labeled live at 687 nM, then 100% methanol 10 minutes −20° C.
  labeling pattern after methanol-fixation: good nucleolar labeling, with only a slight increase in nuclear labeling. All mitochondrial labeling was removed. Cytoplasmic label increased slightly
[5]
  fluorescent signal of rifampicin treated versus untreated bacteria: decrease in fluorescent signal after removal of mRNA
[5]; S. aureus, compound 0.25, 0.5 and 1 μM
  signal intensity on RNA versus DNA in S. aureus cells with and without rifampicin: stronger signal intensity when bound to RNA
[6]; [8]
  signal intensity of DNase treated cells: no decrease in signal intensity
  signal intensity of RNase treated cells: significant reduction in signal intensity
[6]; [9]
  nuclear labeling after DNase: not DNase
  nuclear labeling after RNase: significantly reduced by RNase
[6]; methanol-fixed, compound 687 nM, DNase 2 hours 37° C.
  nucleolar intensity after DNase: did not significantly affect
[6]; methanol-fixed, compound 687 nM, RNase 2 hours 37° C.
  labeling of nucleoli after RNase: eliminated
[6]; [10]
  cytoplasmic label after DNase: not DNase
  cytoplasmic label after RNase: reduced by RNase
[7]; FIG. 6
  concentration of peak emission in detection of intracellular nucleic acid: 500 nM
[7]; methanol-fixed cells
  optimal labeling concentration: about 500 μM
[7]; methanol-fixed, Compound 11 5 μM, 1 μM or 500 nM, Compound 6 500 nM, 20 minutes
  staining pattern: strong nucleolar and cytoplasmic labeling, with dimmer nuclear labeling, indicating selective RNA staining
[2]
  Fluorescence Enhancement Ratio (RNA/DNA): 7.0

## C[n+]1c(/C=C2\C=C(Sc3nnc(SC4=C/C(=C\c5sc6ccccc6[n+]5C)c5ccccc5N4c4ccccc4)s3)N(c3ccccc3)c3ccccc32)sc2ccccc21.[Cl-].[Cl-] [Compound 7]
[2]
  Fluorescence Enhancement Ratio (RNA/DNA): 2.3

## CN1/C(=C\c2c/c(=N/C3CCC(/N=c4/cc(/C=C5/Sc6ccccc6N5C)c5ccccc5n4-c4ccccc4)CC3)n(-c3ccccc3)c3ccccc23)Sc2ccccc21 (centres unmarked) [Compound 8]
[2]
  Fluorescence Enhancement Ratio (RNA/DNA): 4.9

## CN1/C(=C\c2c/c(=N/N3CCN(/N=c4/cc(/C=C5/Sc6ccccc6N5C)c5ccccc5n4-c4ccccc4)CC3)n(-c3ccccc3)c3ccccc23)Sc2ccccc21 [Compound 9]
[5]
  fluorescent signal of rifampicin treated versus untreated bacteria: decrease in fluorescent signal after removal of mRNA
[2]
  Fluorescence Enhancement Ratio (RNA/DNA): 1.7

## C[n+]1c(/C=C2\C=C(N(CCC[N+](C)(C)C)CCC[N+](C)(C)C)N(CCCCCCCCCCN3C(N(CCC[N+](C)(C)C)CCC[N+](C)(C)C)=C/C(=C\c4sc5ccccc5[n+]4C)c4ccccc43)c3ccccc32)sc2ccccc21.Cl.Cl [Compound 13]
[2]
  Fluorescence Enhancement Ratio (RNA/DNA): 2.5

## C[n+]1c(/C=C2\C=C(N3CCNCCN(C4=C/C(=C\c5sc6ccccc6[n+]5C)c5ccccc5N4c4ccccc4)CCNCC3)N(c3ccccc3)c3ccccc32)sc2ccccc21.[Cl-].[Cl-] [Compound 15]
[2]; fluorescence enhancement when associated with DNA to that when associated with RNA
  Fluorescence Enhancement Ratio (DNA/RNA): 3.7

## C[n+]1c(/C=C/C=C2/C=CN(c3ccccc3)C(N3CCN(C4=C/C(=C\C=C\c5sc6ccccc6[n+]5C)C=CN4c4ccccc4)CC3)=C2)sc2ccccc21 [Compound 18]
[2]
  Fluorescence Enhancement Ratio (RNA/DNA): 1.3

## COc1ccc2c(c1)N(c1ccccc1)C(N1CCN(C3=C/C(=C\c4sc5ccccc5[n+]4C)c4ccc(OC)cc4N3c3ccccc3)CC1)=C/C2=C\c1sc2ccccc2[n+]1C.[I-].[I-] [Compound 19]
[3]
  cytoplasmic label after DNase: not reduced at all
  cytoplasmic label after RNase: not reduced at all
  labeling of nucleoli after RNase: eliminated
  nuclear labeling after DNase: not DNase
  nuclear labeling after RNase: significantly reduced with RNase
  nucleolar intensity after DNase: significantly reduced
[2]
  Fluorescence Enhancement Ratio (RNA/DNA): 4.9

## CN1/C(=C\c2ccn(-c3ccccc3)/c(=N\N3CCN(/N=c4/cc(/C=C5/Sc6ccccc6N5C)c5ccccc5n4-c4ccccc4)CC3)c2)Sc2ccccc21 [Compound 25]
[2]
  Fluorescence Enhancement Ratio (RNA/DNA): 5.6

## N=C(N)c1ccc(-c2cc3ccc(C(=N)N)cc3[nH]2)cc1 [DAPI, reference compound]
[6]; control to test the activity of the DNase, printed as treated with RNase
  label intensity of DNA label control after nuclease treatment: significant decline in label intensity
